# Where a name gives a salt, the structure may show the parent alone. Read-outs that look alike come from different tables or passages of the source.
# Tests used:
# Lung cancer H292 = experiment: MTT cytotoxicity, lung cancer H292; format: cell-based
# Lung cancer Lewis = experiment: MTT cytotoxicity, lung cancer Lewis; format: cell-based
# [1] = test system: Alveolar epithelial cells BEAS-2B; experiment: MTT cytotoxicity, alveolar epithelial cells BEAS-2B; format: cell-based
# normal mice = experiment: in vivo; conditions: Table 3; mice, single intravenous administration, 14 days observation
# Description: (§1) Kunming mice with 4˜6 weeks old and 18 g˜22 g by weight were taken, 50% males and 50% females. […] The condition of mortality and toxicity were observed after administration. Totally observing for 14 days, LD50 value was calculated using Bliss method according to the mortality.
# colon cancer SW480 = experiment: MTT cytotoxicity, colon cancer SW480; format: cell-based
# [2] = MTT cytotoxicity, alveolar epithelial cells BEAS-2B; format: cell-based; conditions: human, BEAS-2B alveolar epithelial cells; Alveolar epithelial cells BEAS-2B, MTT, n = 6
# in vivo = conditions: both, Kunming, mouse, in vivo, iv
# Description: as §1
# Lung cancer A549 = experiment: MTT cytotoxicity, lung cancer A549; conditions: read-out: cytotoxicity IC50; Lung cancer A549, MTT, n = 6, Table 4
# Description: Cell morphologies were observed after being cultivated for 24 hours.
# Breast cancer MCF-7 = experiment: MTT cytotoxicity, breast cancer MCF-7; format: cell-based; conditions: Breast cancer MCF-7, MTT, n = 6
# Esophagus cancer ECA109 = experiment: MTT cytotoxicity, esophagus cancer ECA109; format: cell-based; conditions: n = 6
# [3] = existing platinum drugs, background section; cited from earlier work
# [4] = test system: Breast cancer MCF-7 cisplatin resistance strain; experiment: MTT cytotoxicity, breast cancer MCF-7 cisplatin resistance strain; format: cell-based; conditions: n = 6
# gastric cancer MGC803 = experiment: MTT cytotoxicity, gastric cancer MGC803; format: cell-based; conditions: n = 6
# Testis cell ST = experiment: MTT cytotoxicity, testis cell ST; format: cell-based; conditions: n = 6
# [5] = MTT cytotoxicity, testis cell ST; format: cell-based; conditions: pig, ST testis cells, n = 6
# [6] = Lung cancer H292, MTT, n = 6, read-out: cytotoxicity IC50
# [7] = Lung cancer Lewis, MTT, n = 6, read-out: cytotoxicity IC50
# [8] = Alveolar epithelial cells BEAS-2B, MTT, n = 6, read-out: cytotoxicity IC50
# [9] = colon cancer SW480, MTT, n = 6, read-out: cytotoxicity IC50
# [10] = compound of the example (salt form) in water
molecule,measurement,setting,value
"NCCCCC1C(=O)[O][Pt]2([NH]C3CCCCC3[NH]2)[O]C1=O.O=P(O)(O)O (racemic) [Compound 11, 2-(4-aminobutyl)-malonate•cis-(1,2-trans-cyclohexanediamine) platinum (II) phosphate]",IC50,Lung cancer H292,5 µM
same,IC50,Lung cancer Lewis,49 µM
same,IC50,[1],2 µM
same,LD50 vALUE,normal mice,0.803 mmol/kg
same,IC50,colon cancer SW480,21 µM
"CC1CCCN1CCCCC1C(=O)[O][Pt]([NH2])([NH2])[O]C1=O (stereo not drawn) [Compound 10, 2-(4-(2-methyl-1-tetrahydropyrrolidinyl)-butyl)-malonate•cis-diamine platinum (II) phosphate]",solubility,Solubility in water; water,> 300 mg/mL
same,IC50,[2],3 µM
same,LD50,in vivo,791 µmol/kg
"CCN(CC)CCCCC1C(=O)[O][Pt]([NH2])([NH2])[O]C1=O [Compound 1, 2-(4-diethylaminobutyl)-malonate•cis-diamine platinum (II) acetate]",solubility,Solubility in water; water,> 300 mg/mL
same,LD50,in vivo,746 µmol/kg
"[NH2][Pt]1([NH2])[O]C(=O)C(CCCCN2CCCC2)C(=O)[O]1 [Compound 5, 2-(4-(1-tetrahydropyrrolidinyl)-butyl)-malonate•cis-diamine platinum (II) phosphate]",solubility,Solubility in water; water,> 300 mg/mL
same,IC50,[2],2 µM
same,LD50,in vivo,845 µmol/kg
"N.N.O=C([O-])C1(C(=O)[O-])CCC1.[Pt+2] [Carboplatin, cis-1,1-cyclobutanedicarboxylatodiamminoplatinum, reference compound]",IC50,Lung cancer H292; [6],55 µM
same,IC50,Lung cancer A549,232 µM
same,IC50,Breast cancer MCF-7,103 µM
same,IC50,Lung cancer Lewis; [7],38 µM
same,IC50,[1]; [8],37 µM
same,IC50,Esophagus cancer ECA109,52 µM
same,solubility,[3],17.8 mg/mL
same,IC50,[4],255 µM
same,IC50,gastric cancer MGC803,625 µM
same,LD50 vALUE,normal mice,0.336 mmol/kg
same,IC50,colon cancer SW480; [9],87 µM
same,IC50,Testis cell ST,195 µM
"Cc1ccc(S(=O)(=O)O)cc1.O=C1[O][Pt]2([NH]C3CCCCC3[NH]2)[O]C(=O)C1CCCCN1CCCCC1 (racemic) [Compound 9, 2-(4-(1-piperidyl)-butyl)-malonate•cis-(1,2-trans-cyclohexanediamine) platinum (II) tosilate]",IC50,Lung cancer H292,8 µM
same,IC50,Lung cancer Lewis,50 µM
same,IC50,[1],2 µM
same,LD50 vALUE,normal mice,0.725 mmol/kg
same,IC50,colon cancer SW480,14 µM
"CCN(CC)CCCCC1C(=O)[O][Pt]2([NH]C3CCCC3[NH]2)[O]C1=O.O=P(O)(O)O (racemic) [Compound 14, 2-(4-diethylaminobutyl)-malonate•cis-(1,2-trans-cyclopentanediamine) platinum (II) phosphate]",IC50,Lung cancer H292; [6],12 µM
same,IC50,Lung cancer Lewis; [7],36 µM
same,solubility,Solubility in water; [10],more than 300 mg/ml
same,IC50,[1]; [8],5 µM
same,LD50 vALUE,normal mice,0.866 mmol/kg
same,IC50,colon cancer SW480; [9],17 µM
"CCN(CC)CCCCC1C(=O)[O][Pt]2([NH]C3CCCCC3[NH]2)[O]C1=O.Cc1ccc(S(=O)(=O)O)cc1 (racemic) [Compound 3, 2-(4-diethylaminobutyl)-malonate•cis-(1,2-trans-cyclohexanediamine) platinum (II) tosilate]",IC50,Lung cancer H292; [6],6 µM
same,IC50,Lung cancer A549,8 µM
same,IC50,Breast cancer MCF-7,7 µM
same,IC50,[4],21 µM
same,LD50 vALUE,normal mice,0.815 mmol/kg
"2-(4-ethyl aminobutyl)-malonate•cis-(1, 2-trans-cyclohexanediamine) platinum (II) phosphate [Compound 12]",IC50,Lung cancer H292,6 µM
same,IC50,Lung cancer Lewis,18 µM
same,IC50,[1],8 µM
same,LD50 vALUE,normal mice,0.729 mmol/kg
same,IC50,colon cancer SW480,18 µM
"CCN(CC)CC(C)CCC1C(=O)[O][Pt]([NH2])([NH2])[O]C1=O (stereo not drawn) [Compound 8, 2-(3-methyl-4-diethylaminobutyl)-malonate•cis-diamine platinum (II) acetate]",solubility,Solubility in water; water,> 300 mg/mL
same,IC50,[2],5 µM
same,LD50,in vivo,801 µmol/kg
2-(4-di-n-propylaminobutyl)-malonate•cis-diamine platinum (II) phosphate [Compound 7],IC50,Lung cancer H292,4 µM
same,IC50,Lung cancer Lewis,21 µM
same,IC50,[1],4 µM
same,LD50 vALUE,normal mice,0.778 mmol/kg
same,IC50,colon cancer SW480,10 µM
"CN(C)C1CC(C2C(=O)[O][Pt]([NH2])([NH2])[O]C2=O)C1 (stereo not drawn) [Compound 6, 2-(3-dimethylaminocyclobutyl)-malonate•cis-diamine platinum (II) mesylate]",solubility,Solubility in water; water,> 300 mg/mL
same,IC50,[2],3 µM
same,LD50,in vivo,756 µmol/kg
"CCN(CC)CCCCC1C(=O)[O][Pt]2([NH]CC3CCC3C[NH]2)[O]C1=O.O=P(O)(O)O (racemic) [Compound 22, 2-(4-diethylaminobutyl)-malonate•cis-1,4-(trans-2,3-cyclobutyl)-butanediamine platinum (II) phosphate]",IC50,Lung cancer H292; [6],5 µM
same,solubility,Solubility in water; [10],more than 300 mg/ml
same,IC50,Esophagus cancer ECA109,102 µM
same,IC50,gastric cancer MGC803,7 µM
same,IC50,Testis cell ST,14 µM
"CCN(CC)CCCCC1C(=O)[O][Pt]([NH2])([N]2CCCCC2)[O]C1=O (stereo not drawn) [Compound 28, 2-(4-diethylaminobutyl)-malonate•cis-ammonia•piperidine platinum (II) acetate]",solubility,Solubility in water; water,> 300 mg/mL
same,LD50 at 14 days,in vivo,725 µmol/kg
same,IC50,[5],61 µM
"[NH2][Pt]1([NH2])[O]C(=O)C(CCCCN2CCCCC2)C(=O)[O]1 [Compound 4, 2-(4-(1-piperidyl)-butyl)-malonate•cis-diamine platinum (II) phosphate]",solubility,Solubility in water; water,> 300 mg/mL
same,LD50,in vivo,823 µmol/kg

# From patent US9725477B2, “Platinum compounds of malonic acid derivative having leaving group containing amino or alkylamino” (BEIJING FSWELCOME TECHNOLOGY DEVELOPMENT CO., LTD, priority 2012, dated 2017)
